Measured values as given in the NIST ThermoML archive (doi:10.1016/j.fluid.2017.06.019).
Numbers after ± are expanded uncertainties.

Settings: 364.65 K, Coaxial cylinder method

CCC [propane]
Settings | thermal conductivity [W/m/K]
3818 kPa, Gas | 0.04192 ± 0.0026
3819 kPa, Gas | 0.04192 ± 0.0029
3820 kPa, Gas | 0.04192 ± 0.0029
3826 kPa, Gas | 0.04799 ± 0.004
3827 kPa, Gas | 0.05041 ± 0.0043
3828 kPa, Gas | 0.05375 ± 0.006
3829 kPa, Gas | 0.05683 ± 0.0063
3830 kPa, Gas | 0.05989 ± 0.0038
3831 kPa, Gas | 0.06347 ± 0.004
3832 kPa, Gas | 0.0673 ± 0.0043
3833 kPa, Gas | 0.07157 ± 0.0045
3834 kPa, Gas | 0.0754 ± 0.0048
3835 kPa, Gas | 0.07969 ± 0.0051
3836 kPa, Gas | 0.08397 ± 0.0054
3837 kPa, Gas | 0.08791 ± 0.0056
3838 kPa, Gas | 0.09202 ± 0.0059
3839 kPa, Gas | 0.09605 ± 0.0062
3840 kPa, Gas | 0.1002 ± 0.0065
3841 kPa, Gas | 0.1044 ± 0.0068
3842 kPa, Gas | 0.1088 ± 0.0071
3843 kPa, Gas | 0.1131 ± 0.0075
3844 kPa, Gas | 0.1173 ± 0.0078
3845 kPa, Gas | 0.1218 ± 0.0081
3846 kPa, Gas | 0.1263 ± 0.0085
3847 kPa, Gas | 0.1307 ± 0.0088
3848 kPa, Gas | 0.135 ± 0.0092
3849 kPa, Gas | 0.14 ± 0.0096
3850 kPa, Gas | 0.1445 ± 0.01
3851 kPa, Gas | 0.1491 ± 0.01
3852 kPa, Gas | 0.1538 ± 0.011
3853 kPa, Gas | 0.1584 ± 0.011
3854 kPa, Gas | 0.1635 ± 0.012
3855 kPa, Gas | 0.1693 ± 0.012
3856 kPa, Gas | 0.1732 ± 0.013
3857 kPa, Gas | 0.1782 ± 0.013
3858 kPa, Gas | 0.1831 ± 0.014
3859 kPa, Gas | 0.1881 ± 0.014
3860 kPa, Gas | 0.1933 ± 0.015
3861 kPa, Gas | 0.1983 ± 0.016
3862 kPa, Gas | 0.2036 ± 0.016
3863 kPa, Gas | 0.2089 ± 0.017
3864 kPa, Gas | 0.2141 ± 0.018
3865 kPa, Gas | 0.2194 ± 0.019
3866 kPa, Gas | 0.2249 ± 0.016
3867 kPa, Gas | 0.2303 ± 0.016
3868 kPa, Gas | 0.2361 ± 0.017
3869 kPa, Gas | 0.2404 ± 0.017
3870 kPa, Liquid | 0.2611 ± 0.024
3871 kPa, Liquid | 0.2548 ± 0.023
3872 kPa, Liquid | 0.249 ± 0.023
3873 kPa, Liquid | 0.2424 ± 0.022
3874 kPa, Liquid | 0.2366 ± 0.021
3875 kPa, Liquid | 0.2306 ± 0.021
3876 kPa, Liquid | 0.2246 ± 0.02
3877 kPa, Liquid | 0.2189 ± 0.02
3878 kPa, Liquid | 0.2127 ± 0.019
3879 kPa, Liquid | 0.2068 ± 0.019
3880 kPa, Liquid | 0.2008 ± 0.018
3881 kPa, Liquid | 0.1952 ± 0.018
3882 kPa, Liquid | 0.1898 ± 0.017
3883 kPa, Liquid | 0.1838 ± 0.017
3884 kPa, Liquid | 0.1778 ± 0.017
3885 kPa, Liquid | 0.1728 ± 0.017
3886 kPa, Liquid | 0.1668 ± 0.016
3887 kPa, Liquid | 0.1613 ± 0.015
3888 kPa, Liquid | 0.1556 ± 0.015
3889 kPa, Liquid | 0.1503 ± 0.015
3890 kPa, Liquid | 0.1444 ± 0.015
3891 kPa, Liquid | 0.1391 ± 0.015
3892 kPa, Liquid | 0.1337 ± 0.014
3893 kPa, Liquid | 0.1279 ± 0.014
3894 kPa, Liquid | 0.1224 ± 0.013
3895 kPa, Liquid | 0.117 ± 0.013
3896 kPa, Liquid | 0.1115 ± 0.013
3897 kPa, Liquid | 0.1061 ± 0.012
3898 kPa, Liquid | 0.1008 ± 0.012
3899 kPa, Liquid | 0.09527 ± 0.012
3900 kPa, Liquid | 0.08987 ± 0.012
3901 kPa, Liquid | 0.08442 ± 0.012
3902 kPa, Liquid | 0.07906 ± 0.011
3903 kPa, Liquid | 0.07632 ± 0.011
3904 kPa, Liquid | 0.0735 ± 0.011
3905 kPa, Liquid | 0.07087 ± 0.0048
3906 kPa, Liquid | 0.06861 ± 0.011
3907 kPa, Liquid | 0.06633 ± 0.01
3908 kPa, Liquid | 0.06424 ± 0.01
3909 kPa, Liquid | 0.06367 ± 0.0043
3910 kPa, Liquid | 0.06367 ± 0.01
3911 kPa, Liquid | 0.06367 ± 0.01
3912 kPa, Liquid | 0.06367 ± 0.0096
3913 kPa, Liquid | 0.06367 ± 0.0096
3914 kPa, Liquid | 0.06367 ± 0.0042
3915 kPa, Liquid | 0.0637 ± 0.0095
3920 kPa, Liquid | 0.06366 ± 0.0089
3925 kPa, Liquid | 0.06366 ± 0.0086
3930 kPa, Liquid | 0.06362 ± 0.0083
3935 kPa, Liquid | 0.06364 ± 0.0083
3940 kPa, Liquid | 0.06364 ± 0.0084
3945 kPa, Liquid | 0.06362 ± 0.0085
3950 kPa, Liquid | 0.06362 ± 0.0066
3955 kPa, Liquid | 0.06362 ± 0.0053
3960 kPa, Liquid | 0.06362 ± 0.0047
3965 kPa, Liquid | 0.06362 ± 0.0044
3970 kPa, Liquid | 0.06362 ± 0.0043
3975 kPa, Liquid | 0.0636 ± 0.0043
3980 kPa, Liquid | 0.0636 ± 0.0042
4000 kPa, Liquid | 0.06363 ± 0.0042
4020 kPa, Liquid | 0.06367 ± 0.0041
4040 kPa, Liquid | 0.06367 ± 0.0041
4060 kPa, Liquid | 0.06371 ± 0.0042
